Results as given in US11969417B2, “Topical formulation for use in alopecia” (TOMORROWLABS GMBH, priority 2019, dated 2024).
Entries after “also recorded” stand apart in the source; their conditions may differ.

Test system: dermal papilla cell (DP)
Experiment: 3D spheroid (hanging drop) culture model of dermal papilla cells
Assay type: cell-based
Conditions: 3D spheroid culture
Description: FIG. 1: 3D hanging drop culture of DPCs. […] After spheroid formation is complete, the samples are transferred into a 96 well plate for further cultivation and drug exposure. […] (A) Representative images of spheroids stained for newly synthesized cells were taken after drug exposure for 12 hours (left column) and 24 hours (right column) respectively. Scale bars: 200 μm.

SMILES: Cc1c(O)c(=O)ccn1C [Deferiprone, 3-hydroxy-1,2-dimethylpyridin-4(1H)-one]
- DP cell migration (radius of migration around the spheroids) (after 24 hours): without impeding; also recorded: unchanged
- DP cell proliferation (synthesis of new daughter cells) (drug exposure for 12 hours and 24 hours): significantly increases; also recorded: significantly enhanced
